Read-outs that look alike come from different tables or passages of the source.
What was measured:
[1] = target: T1, rabbit angiotensin-converting enzyme (ACE) (Oryctolagus cuniculus, UniProt P12822); assay: ACE selectivity assay; format: biochemical
T1 construct: purchased Sigma
T1 sequence (P12822 34-1310): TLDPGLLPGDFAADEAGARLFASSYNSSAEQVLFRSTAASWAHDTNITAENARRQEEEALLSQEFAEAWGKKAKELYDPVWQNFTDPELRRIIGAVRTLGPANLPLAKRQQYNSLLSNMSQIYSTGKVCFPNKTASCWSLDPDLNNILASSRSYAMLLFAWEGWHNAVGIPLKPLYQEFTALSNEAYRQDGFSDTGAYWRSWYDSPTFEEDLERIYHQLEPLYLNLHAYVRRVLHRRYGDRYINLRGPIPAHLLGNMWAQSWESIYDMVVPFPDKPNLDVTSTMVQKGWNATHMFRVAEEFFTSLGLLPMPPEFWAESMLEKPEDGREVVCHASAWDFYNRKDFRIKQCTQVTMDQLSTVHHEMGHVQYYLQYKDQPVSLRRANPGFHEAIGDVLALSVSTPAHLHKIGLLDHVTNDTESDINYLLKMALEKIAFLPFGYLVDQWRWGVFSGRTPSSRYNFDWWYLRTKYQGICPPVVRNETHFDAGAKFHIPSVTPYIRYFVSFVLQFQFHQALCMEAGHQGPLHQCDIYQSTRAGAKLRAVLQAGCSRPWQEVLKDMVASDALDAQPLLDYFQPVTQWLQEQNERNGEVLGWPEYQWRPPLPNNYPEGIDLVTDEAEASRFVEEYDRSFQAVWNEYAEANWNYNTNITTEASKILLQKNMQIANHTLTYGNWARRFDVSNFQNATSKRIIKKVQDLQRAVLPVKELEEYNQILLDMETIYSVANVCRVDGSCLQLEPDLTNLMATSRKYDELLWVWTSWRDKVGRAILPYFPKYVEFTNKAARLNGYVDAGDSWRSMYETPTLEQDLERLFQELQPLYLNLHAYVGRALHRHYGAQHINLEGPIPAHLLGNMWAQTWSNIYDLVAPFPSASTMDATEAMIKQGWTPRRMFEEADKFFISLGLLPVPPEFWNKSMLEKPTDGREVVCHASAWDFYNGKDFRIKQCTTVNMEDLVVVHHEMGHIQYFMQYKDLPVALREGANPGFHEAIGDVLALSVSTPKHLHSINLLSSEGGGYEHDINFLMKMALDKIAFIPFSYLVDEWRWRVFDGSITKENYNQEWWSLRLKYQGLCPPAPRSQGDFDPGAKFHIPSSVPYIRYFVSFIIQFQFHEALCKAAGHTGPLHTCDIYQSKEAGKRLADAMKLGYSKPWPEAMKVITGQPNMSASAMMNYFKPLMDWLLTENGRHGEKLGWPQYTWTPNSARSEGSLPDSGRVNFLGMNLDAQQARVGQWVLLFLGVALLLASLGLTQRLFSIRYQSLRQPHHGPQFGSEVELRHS
Protocol: Selectivity of compound inhibition was evaluated against other proteases at concentrations between 0.4 and 200 μM. Activity against rabbit angiotensin-converting enzyme (ACE, Sigma) was assessed using 10 μM fluorogenic substrate Abz-Phe-Arg-Lys(Dnp)-P (Enzo Life Sciences) in 100 mM Tris-HCl pH 7, 50 mM NaCl, 10 μM Zn SO4. Activity against human matrix metalloproteases (MMP)-2 and MMP-9 was assessed in 50 mM HEPES pH 7.5, 10 mM CaCl2, 0.01% Triton X-100 using 4 μM fluorogenic substrate Mca-Pro-Leu-Gly-Leu-Dpa-Ala-Arg-NH2 (Enzo Life Sciences). Activity against MMP-1 and MMP-13 was assessed in 25 mM HEPES pH 7.5, 100 mM NaCl, 100 mM CaCl2, 0.0005% Brij using 7.5 μM fluorogenic substrate Mca-Lys-Pro-Leu-Gly-Leu-Dpa-Ala-Arg-NH2 (Sigma) for MMP-1 and 1.25 μM fluorogenic substrate Mca-Pro-Cha-Gly-Nva-His-Ala-Dpa-NH2 (Millipore) for MMP-13. Activity against human neutrophil elastase (HNE, Enzo Life Sciences) was assessed in 100 mM HEPES pH 7.5, 500 mM NaCl, 0.01% of Triton X-100 using 100 μM fluorogenic substrate MeOSuc-AAPV-AMC (Enzo Life Sciences).

[2] = tested on: activated IL-1β; assay: Mouse P. aeruginosa lung infection model, activated IL-1β in lung homogenates; format: in vivo; conditions: C57Bl/6 mice, 10 and 30 mg/kg IV at 1 and 4 h post-infection, 24 h; p < 0.0001
Protocol: To investigate if compounds 12 and 16 were able to engage the LasB target in vivo, in the context of a P. aeruginosa lung infection, and to determine the consequences of that inhibition, immunocompetent C57Bl/6 mice were infected intranasally with P. aeruginosa PAO1 and treated with two doses of inhibitors, 10 and 30 mg/kg, administered IV at 1 and 4 h post-infection (Figure 5A). A control group of PAO1-infected animals treated with vehicle and a group of animals infected with the isogenic ΔlasB strain were included in the study. Mice were euthanized 24 h post-infection and their lung homogenates assayed for activated mature IL-1β (using the IL-1 reporter assay) and bacterial numbers (by CFU enumeration).
Infection experiments were approved by the Institutional Animal Care and Use Committee of Emory University. To prepare the bacterial inoculum, P. aeruginosa PAO1 (or its ΔlasB derivative) was grown in Luria broth with shaking at physiologic (37 °C) temperature for 18 h to maximally express LasB (at late log phase). […] Active IL-1β was quantified by adding 100 μL of cell-free homogenate to IL-1β responsive HEK IL-1R-lux reporter cells. Activity was assayed by luminescence measured with D-luciferin substrate (Steady-Luc, Biotium) on a multimode reader (PerkinElmer) and expressed as relative luminescence units (RU). […] Statistics were calculated by ANOVA with a Dunnett post-test.

Row | SMILES | IC50 ([1]; rabbit ACE, read-out: selectivity IC50, ACE) | decrease in activated IL-1β in lung homogenates vs PAO1-infected control group [2] | IC50 [1]
1 | COc1cc2sc(CNC(=O)C3(CC(=O)O)Cc4ccccc4C3)nc2cc1OCCC[N+](C)(C)C [Compound 12] | > 200 µM | up to 4 fold | –
2 | COc1cc2sc(CNC(=O)C3(CC(=O)O)Cc4cc(F)c(F)cc4C3)nc2cc1OCCC[N+](C)(CCO)CCO [Compound 16] | – | up to 4 fold | > 200 µM

Reference: paper PMC9926489, “Chemical Optimization of Selective Pseudomonas aeruginosa LasB Elastase Inhibitors and Their Impact on LasB-Mediated Activation of IL-1β in Cellular and Animal Infection Models” (ACS Infectious Diseases, 2023)
